In ChEMBL document CHEMBL1152005, “Design, synthesis and X-ray crystallographic studies of novel FKBP-12 ligands” (Bioorg Med Chem Lett, 1995):

What was measured:
[1] = Compound was evaluated for its ability to inhibit the rotamase activity of FKBP-12; conditions: read-out: Ki app
[2] = Compound was evaluated for its ability to inhibit the rotamase activity of FKBP-12; no inhibition

Compound | Ki [1] | Ki app [2]
O=C1CC2CCCC(Sc3ccccc3)(C1)C2 (stereo not given) | 9.2 µM | 
O=C1CC2CCCC(Oc3cccc(O)c3)(C1)C2 (stereo not given) | 16.7 µM | 
CN(c1ccccc1)C12CCCC(CC(=O)C1)C2 (stereo not given) | 165 µM | 
Cc1ccccc1OC12CCCC(CC(=O)C1)C2 (stereo not given) | 120 µM | 
O=C1CC2CCCC(O)(C1)C2 (stereo not given) |  | Not Active
Cc1cccc(C)c1OC12CCCC(CC(=O)C1)C2 (stereo not given) | 461 µM | 
COc1cccc(OC23CCCC(CC(=O)C2)C3)c1 (stereo not given) | 92.1 µM | 
O=C1CC2CCCC(OCc3ccccc3)(C1)C2 (stereo not given) | 85.8 µM | 
O=C1CC2CCCC(Oc3ccccc3)(C1)C2 (stereo not given) | 116 µM | 
O=C1CC2CCCC(S(=O)(=O)c3ccccc3)(C1)C2 (stereo not given) | 48.5 µM | 
